Experimental data: patent publication US7087757B2, “Phenyl-substituted imidazopyridines” (Ortho-McNeil Pharmaceutical, Inc., priority 2000, dated 2006)

Each compound was assayed against T1, human histamine H3 receptor (Homo sapiens, UniProt Q9Y5N1) (assay: [3H]-N-methylhistamine binding). Conditions: membranes of histamine H3 receptor-expressing SK-N-MC cells; 0.8 nM [3H]-N-methylhistamine; 45 minutes at 25° C.; Ki calculated with KD of 800 pM.
T1 construct: One microgram supercoiled H3 receptor cDNA was added to the cells and mixed; expressed in transfected cells; membranes prepared from cell pellets
Method: Screening using the human receptor is particularly important for the identification of new therapies for the treatment of human disease.
A 10 cm tissue culture dish with a confluent monolayer of SK-N-MC cells was split two days prior to transfection. Using sterile technique the media was removed and the cells were detached from the dish by the addition of trypsin. One fifth of the cells were then placed onto a new 10 cm dish. Cells were grown in a 37° C. incubator with 5% CO2 in Minimal Essential Media Eagle with 10% Fetal Bovine Serum. After two days cells were approximately 80% confluent. These were removed from the dish with trypsin and pelleted in a clinical centrifuge. […] One microgram supercoiled H3 receptor cDNA was added to the cells and mixed. The voltage for the electroporation was set at 0.25 kV, the capacitance is set at 960 μF.
After electroporation the cells were diluted into 10 mL complete media and plated onto four 10 cm dishes. Due to the variability in the efficiency of electroporation, four different concentrations of cells were plated. The ratios used were: 1:20, 1:10, and 1:5, with the remainder of the cells being added to the fourth dish. The cells were allowed to recover for 24 hours before adding the selection media (complete media with 600 μg/ml G418). After 10 days dishes were analyzed for surviving colonies of cells. Dishes with well-isolated colonies were used. Cells from individual colonies were isolated and tested. SK-N-MC cells were used because they give efficient coupling for inhibition of adenylate cyclase. The clones that gave the most robust inhibition of adenylate cyclase in response to histamine were used for further study.
Cell pellets from histamine H3 receptor-expressing SK-N-MC cells were homogenized in 20 mM Tris HCl/0.5 mM EDTA. Supernatants from a 800 g spin were collected, reccentrifuged at 30,000 g for 30 minutes. Pellets were rehomogenized in 50 mM Tris/5 mM EDTA (pH 7.4). Membranes were incubated with 0.8 nM [^3H]-N-methylhistamine plus/minus test compounds for 45 minutes at 25° C. and harvested by rapid filtration over GF/C glass fiber filters (pretreated with 0.3% polyethylenimine) followed by four washes with ice cold buffer. Filters were dried, added to 4 mL scintillation cocktail and then counted on a liquid scintillation counter.

T1 sequence (Q9Y5N1 whole entry): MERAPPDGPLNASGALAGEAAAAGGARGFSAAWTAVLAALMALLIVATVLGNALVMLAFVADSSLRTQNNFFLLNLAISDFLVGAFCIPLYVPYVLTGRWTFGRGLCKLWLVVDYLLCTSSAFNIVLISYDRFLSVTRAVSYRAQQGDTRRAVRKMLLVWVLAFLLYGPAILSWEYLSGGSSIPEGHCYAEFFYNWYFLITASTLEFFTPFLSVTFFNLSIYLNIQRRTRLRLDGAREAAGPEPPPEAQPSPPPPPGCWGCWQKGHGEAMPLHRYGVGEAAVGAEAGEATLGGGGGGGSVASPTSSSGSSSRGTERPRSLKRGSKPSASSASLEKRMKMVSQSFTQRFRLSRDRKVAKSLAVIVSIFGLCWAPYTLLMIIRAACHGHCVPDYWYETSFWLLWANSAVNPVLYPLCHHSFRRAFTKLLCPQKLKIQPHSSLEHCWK

SMILES | Ki [µM]
Cc1ccn2cc(-c3ccc(C=CCCN4CCCCC4)cc3)nc2c1 (mixture of isomers) [Example 36, (E/Z)-2-[4-[4-Piperidinobut-1-enyl]phenyl]-7-methylimidazo[1,2-a]pyridine] | 0.011
CCN(CC)CCNC(=O)c1ccc(-c2cn3cccc(C)c3n2)cc1 [Example 1, N-(2-Diethylamino-ethyl)-4-(8-methyl-imidazo[1,2-a]pyridin-2-yl)-benzamide] | 0.09
Cc1cccn2cc(-c3ccc(C(=O)OCCN(C)C)cc3)nc12 [Example 2, 4-(8-Methyl-imidazo[1,2-a]pyridin-2-yl)-benzoic acid 2-dimethylamino-ethyl ester] | 0.089
CCN(CC)CCOC(=O)c1ccc(-c2cn3cccc(C)c3n2)cc1 [Example 3, 4-(8-Methyl-imidazo[1,2-a]pyridin-2-yl)-benzoic acid 2-diethylamino-ethyl ester] | 0.02
Cc1cccn2cc(-c3ccc(NC(=O)CN4CCCC4)cc3)nc12 [Example 4, N-[4-(8-Methyl-imidazo[1,2-a]pyridin-2-yl)-phenyl]-2-pyrrolidin-1-yl-acetamide] | 0.07
CCCN(CCC)CC(C)COc1ccc(-c2cn3cccc(C)c3n2)cc1 (stereo not drawn) [Example 5, {2-Methyl-3-[4-(8-methyl-imidazo[1,2-a]pyridin-2-yl)-phenoxy]-propyl}-dipropyl-amine] | 0.05
CCN(CC)CCNc1ccc(-c2cn3cccc(C)c3n2)cc1 [Example 7, N,N-Diethyl-N′-[4-(8-methyl-imidazo[1,2-a]pyridin-2-yl)-phenyl]-ethane-1,2-diamine] | 0.004
COc1cc(-c2cn3ccc(C)cc3n2)ccc1OCCCN1CCCC1 [Example 13, 2-[3-Methoxy-4-(3-pyrrolidin-1-yl-propoxy)-phenyl]-7-methyl-imidazo[1,2-a]pyridine] | 0.063
c1cc(-c2cn3c(n2)CCCC3)ccc1OCCCN1CCCCC1 [Example 16, 2-[4-(3-Piperidin-1-yl-propoxy)-phenyl]-5,6,7,8-tetrahydro-imidazo[1,2-a]pyridine] | 0.00075
Cc1cc(OCCCN2CCCCC2)ccc1-c1cn2c(n1)CC(C)CC2 (stereo not drawn) [Example 17, 7-Methyl-2-[2-methyl-4-(3-piperidin-1-yl-propoxy)-phenyl]-5,6,7,8-tetrahydro-imidazo[1,2-a]pyridine] | 0.0032
Cc1ccn2cc(-c3ccc(OCCCN4CCCC4)cc3)nc2c1 [Example 18, 2-(4-Pyrrolidinopropoxyphenyl)-7-methylimidazo[1,2-a]pyridine] | 0.002
Cc1ccn2cc(-c3ccc(OCCCN4CCCCCC4)cc3)nc2c1 [Example 19] | 0.002
Cc1ccn2cc(-c3ccc(OCCCN4CCCCC4)cc3F)nc2c1 [Example 20, 2-(4-Piperidinopropoxy-2-fluorophenyl)-7-methylimidazo[1,2-a]pyridine] | 0.01
Cc1ccn2cc(-c3ccc(OCCCN4CCC(N5CCCCC5)CC4)cc3C)nc2c1 [Example 23, 2-(4-(4-Piperidino)piperidinopropoxy-2-methylphenyl)-7-methylimidazo[1,2-a]pyridine] | 0.014
Cc1ccn2cc(-c3ccc(OCCCN4CCCCCC4)cc3C)nc2c1 [Example 24] | 0.0005
COc1cc(-c2cn3ccc(C)cc3n2)ccc1OCCCN1CCCCC1 [Example 26, 2-(4-Piperidinopropoxy-3-methoxyphenyl)-7-methylimidazo[1,2-a]pyridine] | 0.159
Cc1cccn2cc(-c3ccc(NCCCN4CCCCC4)cc3)nc12 [Example 27, 2-[4-[3-(Piperidino)propylamino]phenyl]-8-methylimidazo[1,2-a]pyridine] | 0.007
Cc1cccn2cc(-c3ccc(NC(=O)CCN4CCCCC4)cc3)nc12 [Example 28, 2-[4-[3-(Piperidinyl)]propanamidophenyl]-8-methylimidazo[1,2-a]pyridine] | 0.158
CCN(CC)CCCNc1ccc(-c2cn3ccc(C)cc3n2)cc1 [Example 30, N,N-Diethyl-N′-[4-(7-methyl-imidazo[1,2-a]pyridin-2-yl)-phenyl]-propane-1,3-diamine] | 0.003
Cc1cccn2cc(-c3ccc(NCCN4CCCCC4)cc3)nc12 [Example 31, [4-(8-Methyl-imidazo[1,2-a]pyridin-2-yl)-phenyl]-(2-piperidin-1-yl-ethyl)-amine] | 0.008
Cc1cccn2cc(-c3ccc(NCCN4CCCC4)cc3)nc12 [Example 32, [4-(8-Methyl-imidazo[1,2-a]pyridin-2-yl)-phenyl]-(2-pyrrolidin-1-yl-ethyl)-amine] | 0.007
Cc1ccn2cc(-c3ccc(C#CCCN4CCCCC4)cc3)nc2c1 [Example 33, 2-[4-[4-Piperidinobut-1-ynyl]phenyl]-7-methylimidazo[1,2-a]pyridine] | 0.003
Cc1ccn2cc(-c3ccc(C#CCCN4CCCC4)cc3)nc2c1 [Example 34, 2-[4-[4-Pyrrolidinobut-1-ynyl]phenyl]-7-methylimidazo[1,2-a]pyridine] | 0.003
Cc1ccn2cc(-c3ccc(CCCCN4CCCC4)cc3)nc2c1 [Example 37, 2-[4-[4-Pyrrolidinobutyl]phenyl]-7-methylimidazo[1,2-a]pyridine] | 0.01
Cc1ccn2cc(-c3ccc(CCCCN4CCCCC4)cc3)nc2c1 [Example 38, 7-Methyl-2-[4-(4-piperdin-1-yl-butyl)-phenyl]imidazo[1,2-a]pyridine] | 0.029
Cc1ccn2cc(-c3ccc(CCCCN4CCCCCC4)cc3)nc2c1 [Example 39, 2-[4-(4-Azepan-1-yl-butyl)-phenyl]-7-methyl-imidazo[1,2-a]pyridine] | 0.057
CC1CCn2cc(-c3ccc(CCCCN4CCCCC4)cc3)nc2C1 (stereo not drawn) [Example 41, 7-Methyl-2-[4-(4-piperidin-1-yl-butyl)-phenyl]-5,6,7,8-tetrahydro-imidazo[1,2-a]pyridine] | 0.027
Cc1cccn2cc(-c3ccc(OCCCNC(C)c4ccccc4)cc3)nc12 (stereo not drawn) [Example 42, 2-(4-alpha-Methylbenzylaminopropoxyphenyl)-8-methylimidazo[1,2-a]pyridine] | 1

Second part, the compound after the results:

Ki [µM] | SMILES
0.055 | CCN(CC)CCC(=O)Nc1ccc(-c2cn3cccc(C)c3n2)cc1 [Example 6, 3-Diethylamino-N-[4-(8-methyl-imidazo[1,2-a]pyridin-2-yl)-phenyl]-propionamide]
0.032 | Cc1cc(-c2cn3cccc(C)c3n2)ccc1OCCCN1CCCCC1 [Example 9, 2-(4-Piperidinopropoxy-3-methylphenyl)-8-methylimidazo[1,2-a]pyridine]
0.611 | CCN(CCOc1ccc(-c2cn3ccccc3n2)cc1)c1ccccc1 [Example 10, 2-(4-(N-Ethyl)anilinoethoxyphenyl)imidazo[1,2-a]pyridine]
0.007 | Cc1cc(-c2cn3ccccc3n2)ccc1OCCC1CCCN1C (stereo not drawn) [Example 11, 2-[4-[2-(1-Methyl)-2-pyrrolidino]ethoxy-3-methylphenyl]imidazo[1,2-a]pyridine]
0.021 | Cc1cc(-c2cn3ccccc3n2)ccc1OCCCN1CCCCC1 [Example 12, 2-(4-Piperidinopropoxy-3-methylphenyl)imidazo[1,2-a]pyridine]
0.034 | COc1cc(-c2cn3ccc(C)cc3n2)ccc1OCCCN1CCCCCC1 [Example 14, 2-[4-(3-Azepan-1-yl-propoxy)-3-methoxy-phenyl]-7-methyl-imidazo[1,2-a]pyridine]
0.028 | Cc1ccn2cc(-c3cccc(OCCCN4CCCCC4)c3)nc2c1 [Example 15, 7-Methyl-2-[3-(3-piperidin-1-yl-propoxy)-phenyl]-imidazo[1,2-a]pyridine]
0.015 | Cc1ccn2cc(-c3ccc(OCCCN4CCCCCC4)cc3F)nc2c1 [Example 21]
0.001 | Cc1ccn2cc(-c3ccc(OCCCN4CCCCC4)cc3C)nc2c1 [Example 22, 2-(4-Piperidinopropoxy-2-methylphenyl)-7-methylimidazo[1,2-a]pyridine]
1.5 | Cc1ccn2cc(-c3ccc(OCCCNCc4ccc(F)cc4)cc3)nc2c1 [Example 25, 2-(4-(4-Fluorobenzyl)aminopropoxyphenyl)-7-methylimidazo[1,2-a]pyridine]
0.009 | CCN(CC)CCCNc1ccc(-c2cn3cccc(C)c3n2)cc1 [Example 29, N,N-Diethyl-N′-[4-(8-methyl-imidazo[1,2-a]pyridin-2-yl)-phenyl]-propane-1,3-diamine]
0.05 | Cc1ccn2cc(-c3ccc(C#CCCN4CCCCCC4)cc3)nc2c1 [Example 35]
0.017 | Cc1ccn2cc(-c3ccc(/C=C/CCN4CCCC4)cc3)nc2c1 [Example 40, 7-Methyl-2-[4-(4-pyrrolidin-1-yl-but-1-enyl)-phenyl]imidazo[1,2-a]pyridine]
1 | Cc1cccn2cc(-c3ccc(OCCCNCc4ccccc4)cc3)nc12 [Example 43, 2-(4-Benzylaminopropoxyphenyl)-8-methylimidazo[1,2-a]pyridine]
